The test concerns the target Tubulin beta-2B chain (UniProt Q6B856). Description: Binding affinity against tubulin from goat brain relative to colchicine.
Chain of Tubulin beta-2B chain (Q6B856 whole entry): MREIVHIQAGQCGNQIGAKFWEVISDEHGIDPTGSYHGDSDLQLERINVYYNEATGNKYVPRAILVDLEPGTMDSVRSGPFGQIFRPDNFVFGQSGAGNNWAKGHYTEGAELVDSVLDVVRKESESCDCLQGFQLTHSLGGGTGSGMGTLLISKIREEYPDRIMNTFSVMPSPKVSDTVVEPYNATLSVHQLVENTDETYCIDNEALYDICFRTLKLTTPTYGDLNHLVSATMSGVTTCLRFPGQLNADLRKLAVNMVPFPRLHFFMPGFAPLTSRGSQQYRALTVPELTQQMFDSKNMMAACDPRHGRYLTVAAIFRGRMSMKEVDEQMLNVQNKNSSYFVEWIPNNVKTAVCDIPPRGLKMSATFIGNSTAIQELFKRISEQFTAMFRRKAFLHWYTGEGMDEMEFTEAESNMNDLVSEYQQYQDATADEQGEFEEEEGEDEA
On to `COc1ccc(S(=O)(=O)Nc2cc(Cl)cc3cc[nH]c23)cc1` [N-(5-Chloro-1H-indol-7-yl)-4-methoxy-benzenesulfonamide], for which the affinity corresponds to a Ki of 7 µM.

Take `COc1ccc(S(=O)(=O)Nc2cccc3c(Cl)c[nH]c23)cc1` [N-(3-Chloro-1H-indol-7-yl)-4-methoxy-benzenesulfonamide]: the affinity, expressed as Ki, was 14 µM. The molecule `COc1ccc(S(=O)(=O)Nc2ccc(Cl)c3cc[nH]c23)cc1` [N-(4-Chloro-1H-indol-7-yl)-4-methoxy-benzenesulfonamide] yielded a Ki of 14 µM. Turning to `COc1ccc(S(=O)(=O)Nc2cccc3cc(Cl)[nH]c23)cc1` [N-(2-Chloro-1H-indol-7-yl)-4-methoxy-benzenesulfonamide], the affinity, expressed as Ki, was 28 µM. Against the preceding molecule, the Ki is about 2-fold higher.

In turn, `COc1ccc(S(=O)(=O)Nc2cccc3cc[nH]c23)cc1` [N-(1H-Indol-7-yl)-4-methoxy-benzenesulfonamide] displayed a Ki of 14 µM.

As usually defined, the Ki is a measure of affinity in units of concentration, obtained from inhibition or displacement. A higher Ki goes with weaker binding.

The record behind these values is BindingDB's records for doi:10.1021/jm0494974 (Institute, 2005).
